Series [1] deals with T1, α-4,β-2 nicotinic acetycholine receptor (α4β2nAChR) (Rattus norvegicus, UniProt P09483+P12390).
T1 construct: crude synaptic membrane preparations from rat cerebral cortex, striatum and hippocampus; from tissue; host or cells: rat cerebral cortex, striatum and hippocampus (crude synaptic membranes, P2 fraction)
Kind of series: Nicotinic acetylcholine receptor binding assay (3H-cytisine). How it is done: Binding of ^3H-cytisine to neuronal nicotinic acetylcholine receptors is accomplished using crude synaptic membrane preparations from rat cerebral cortex, striatum and hippocampus. Either fresh or frozen membranes are homogenized in 50 volumes of 10 mM HEPES (N-2-hydroxyethylpiperazine-N′-2-ethanesulfonic acid, pH 7.4) and centrifuged at 42,000 g. The P2 fraction is resuspended in 40 volumes of 10 mM HEPES and centrifuged at 42,000 g. This step is repeated and the P2fraction was resuspended in 25 volumes (e.g., 1 g of tissue into 25 mL) of a medium comprised of Na^+-HEPES buffer (10 mM, pH 7.4), 5 mM MgCl2, 0.01% powdered bovine serum albumin (BSA) and 100 mM NaCl. […] The binding reaction is terminated by filtration using a Brandel Cell Harvester; the amount of bound ^3H-cytisine for each sample is quantitated using a Wallac LKB 1205 Betaplate liquid scintillation counter. […] Nonspecific binding is determined using 10 μM (+)-epibatidine to block all binding of ^3H-cytisine to the α-4,β-2 nicotinic acetycholine receptor (α4β2nAChR). The activity of each test compound is calculated as follows: after correcting for nonspecific binding, the percent inhibition of specific binding (total binding minus nonspecific) is calculated. […] The IC50 values are calculated by performing a nonlinear regression analysis of the data using a standard regression program.

In series [2] the test system is Human M17 Neuroblastoma Cells. The series is described as follows: Neurite outgrowth assay in human M17 neuroblastoma cells. In kind it is cell-based. The note with it: MAP-2 immunofluorescence, active if greater than mean DMSO-treated control. How it is done:
M17 human neuroblastoma cells are cultured in 1:1 ratio of EMEM and Ham's F12 with 1×NEM and 10% FBS. The culture media contains 1×PSN antibiotic and is exchanged every other day, and the cells are passed in log phase near confluence.
(§1) Cultures are incubated with normal horse serum (1:50; Vector Labs) for about 20 min, rinsed and then incubated with primary antibody, microtubule associated-protein 2 (anti-mouse MAP-2; 1:1000; Chemicon) for about 2 h at about RT. Following primary antibody, cultures are rinsed and incubated with fluorescein anti-mouse IgG (rat absorbed; 1:50; Vector Labs) for about 1 h. After fluorescein incubation, the cultures are rinsed and read in PBS on a fluorescent plate reader (excitation: 485 nm; emission: 530 nm). […] The response to test compound is reported as percent of DMSO-treated control.

The test system of series [3] is Dorsal Root Ganglion (DRG). The series is described as follows: Dorsal Root Ganglion (DRG) culture, neurite outgrowth. On the set-up: key: + = Positive results for each experiment; − = Negative results for each experiment. Format: cell-based, rat. The note with it: neurite outgrowth from DRG, test compound 50-250 nM, days 1-5; positive if neurites of ≧1 diameter of the DRG; one symbol per experiment. As for the experimental part:
Dorsal Root Ganglion (DRG) Culture
DRG are dissected from newborn or 1-day-old CD rats and placed into PBS on ice. After rinsing twice with sterile plating medium, DRG are transferred to empty wells of a 6-well plate coated with polyomithine/laminin (Becton Dickinson Labware) using #7 curved forceps. Three ml/well of plating medium are then added very gently, so as not to disturb the DRG. Plating medium is Leibovitz's L-15 medium (Gibco), plus 0.6% glucose, 33 mM KCl, 10% FCS, 10 mM Hepes and penicillin/streptomycin/glutamine. After overnight incubation at about 37° C. in 5% CO2, this medium is replaced with 3 mL/well of assay medium [Leibovitz's L-15 medium plus 0.6% glucose, 1% FCS, 1% N-2 supplement (Gibco), 10 μM ara-C, 10 mM Hepes, and penicillin/streptomycin/glutamine] containing either vehicle (DMSO, 1/200,000), positive control (2-4 ng/mL NGF) or test compound (50-250 nM). All media are prepared fresh daily. DRG are microscopically examined for neurite outgrowth on days 1-5.

The subject of series [4] is Long-Evans rats, compressed facial nerve. Kind of series: Rat facial nerve compression model. As to conditions: p.o. about 20 mg/kg twice a day for 15 days after surgery; compared to vehicle and internal control; FIG. 1. In kind it is in vivo. As for the experimental part:
In this model, compressing the facial nerve causes paralysis of the whisker muscle on that side of the face. The untreated facial nerve on the other side functions as an internal control. […] The whisker movement recovery rate on the paralyzed side compared to the vehicle and internal control is shown in this FIGURE.
Long-Evans rats are anesthetized under ketamine (60 mg/kg)/xylazine (6mg/kg). The facial nerve is exposed and mechanically compressed with forceps near the stylomastoid foramen unilaterally with the opposite, non-lesioned side serving as an internal control. […] Rats received test compound p.o. at about 20 mg/kg twice a day for 15 days after the surgery. Control rats received vehicle only. Three to eight rats are tested in each group. Restoration of whisker movement after the treatment with compounds of the present invention is recorded at different post-operative time points daily, up to two weeks, and is shown in FIG. 1.

Series [5] deals with Primary Rat Hippocampal Cells. Kind of series: Neurite outgrowth assay in primary rat hippocampal cells. In kind it is cell-based. As to conditions: MAP-2 immunofluorescence, active if greater than mean DMSO-treated control. As for the experimental part: Hippocampal cells are dissected from the brains of embryonic day 18 rat pups and dissociated with trypsin (1 mg/mL) and trituration. Cells are seeded at 30,000 cells/well in 96-well plates filled with 100 μL MEM and 10% FBS. At 7 days in culture, cells are fixed with 4% paraformaldehyde and immuno-fluorescence is performed.
as §1

The term IC50 denotes the concentration that inhibits the measured activity by half. What is called melting point is the temperature of the solid-liquid transition.

T1 sequence (P09483 31-630): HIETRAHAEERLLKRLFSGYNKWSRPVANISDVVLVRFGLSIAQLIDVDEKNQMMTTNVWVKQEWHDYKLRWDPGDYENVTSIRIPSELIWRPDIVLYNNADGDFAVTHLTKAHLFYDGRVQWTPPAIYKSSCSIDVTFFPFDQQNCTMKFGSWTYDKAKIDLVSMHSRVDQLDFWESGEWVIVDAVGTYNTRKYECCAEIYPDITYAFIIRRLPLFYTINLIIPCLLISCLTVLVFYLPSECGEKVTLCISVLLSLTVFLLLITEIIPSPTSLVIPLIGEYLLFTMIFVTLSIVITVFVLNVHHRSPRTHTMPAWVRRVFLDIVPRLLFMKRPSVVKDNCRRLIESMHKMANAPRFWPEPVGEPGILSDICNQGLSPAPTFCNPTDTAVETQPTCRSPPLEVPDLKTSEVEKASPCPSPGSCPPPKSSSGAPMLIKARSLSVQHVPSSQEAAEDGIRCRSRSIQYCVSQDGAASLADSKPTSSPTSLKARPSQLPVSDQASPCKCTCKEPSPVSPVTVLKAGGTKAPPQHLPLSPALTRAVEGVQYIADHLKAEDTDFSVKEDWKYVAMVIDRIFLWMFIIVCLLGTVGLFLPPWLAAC
T1 sequence (P12390 25-500): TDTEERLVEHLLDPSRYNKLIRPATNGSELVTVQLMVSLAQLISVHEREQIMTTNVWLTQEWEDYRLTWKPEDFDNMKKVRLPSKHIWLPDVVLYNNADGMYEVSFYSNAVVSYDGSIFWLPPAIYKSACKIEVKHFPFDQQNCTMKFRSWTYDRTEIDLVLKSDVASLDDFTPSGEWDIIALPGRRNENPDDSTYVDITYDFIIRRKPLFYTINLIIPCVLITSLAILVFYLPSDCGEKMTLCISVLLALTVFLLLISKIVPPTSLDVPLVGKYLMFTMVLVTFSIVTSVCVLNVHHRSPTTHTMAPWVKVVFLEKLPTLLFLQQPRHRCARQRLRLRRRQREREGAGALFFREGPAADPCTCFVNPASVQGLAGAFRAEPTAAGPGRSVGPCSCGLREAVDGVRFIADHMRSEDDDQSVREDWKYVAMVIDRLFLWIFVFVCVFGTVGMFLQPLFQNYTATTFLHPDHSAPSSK

`c1cncc(OCc2ncoc2[C@@H]2CCCN2)c1` [Compound 6]: the IC50 in series [1] worked out at 801 nM.

As to `c1cncc(OCc2csc([C@@H]3CCCN3)n2)c1` [Compound 17], in series [1], the IC50 is 63.8 nM.

With `CCC(C)(C)C(=O)C(=O)N1CCC[C@H]1c1nc(COc2cccnc2)cs1` [Compound 19], the “M17 Cell Response” value in series [2] is 110% of DMSO-treated control.

Turning to `CCC(C)(C)C(=O)C(=O)N1CCC[C@H]1C(=O)NNC(=O)[C@@H]1CCCN1C(=O)C(=O)C(C)(C)CC` [Compound 24], the DRG entry in series [3] was “+ and −”.

In turn, `CCC(C)(C)C(=O)C(=O)N1CCCC1c1nnc([C@@H]2CCCN2C(=O)C(=O)C(C)(C)CC)o1` (some centres unmarked) [Compound 30] returned a melting point of 123 to 124 °C. Also, the “Restoration of whisker movement on the paralyzed side” value in series [4] is listed as “restored more rapidly”.

The compound `O=C(C(=O)N1CCCC1c1nnc([C@@H]2CCCN2C(=O)C(=O)C2CCCCC2)o1)C1CCCCC1` (some centres unmarked) [Compound 49] gave a melting point of 132 to 133 °C.

As to `CCC(C)(C)C(=O)C(=O)N1CCC[C@@H]1C(=O)NNC(=O)[C@H]1CCCN1C(=O)C(=O)C(C)(C)CC` [Compound 63], the “Rat Hippocampal Cell Response” value in series [5] was 110% of DMSO-treated control.

(Values after patent publication US6809107B1, “Neurotrophic pyrrolidines and piperidines, and related compositions and methods” (Ortho-McNeil Pharmaceutical, Inc., priority 1999, dated 2004).)
